{"source": "patent US20250312469A1", "about": "(CANGET BIOTEKPHARMA, priority 2024, published 2025)", "target": "T1, UbE2T (Homo sapiens, UniProt Q9NPD8)", "T1 sequence (Q9NPD8 1-197)": "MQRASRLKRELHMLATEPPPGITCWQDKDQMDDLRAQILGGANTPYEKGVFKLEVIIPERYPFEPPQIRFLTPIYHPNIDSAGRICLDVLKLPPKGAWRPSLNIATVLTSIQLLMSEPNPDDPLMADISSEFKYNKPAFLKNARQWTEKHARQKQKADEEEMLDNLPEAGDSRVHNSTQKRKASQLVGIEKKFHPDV", "assay": "ITC, Flag-UbE2T", "assay_type": "binding", "design": "host or cells: HEK293T", "description": "Purification of Flag-tagged DDX5 (Flag-DDX5), USP2a (Flag-USP2), UbE2T (Flag-(bE2T) and topoisomerase 1 (Top1) (Flag-Top1) proteins: Flag-DDX5, Flag-USP2, Flag-UbE2T and Flag-Topl proteins were purified from the protein expression vector-transfected HEK293T cells by using the FLAG® M Purification Kit for mammalian expression systems (CELLMM2-IKT, Sigma). Briefly, sub-confluent populations of HEK293T cells were transfected with expression vectors for Flag-DDX5, Flag-USP2, Flag-UbE2T and Flag-Top1 (OriGene) using Lipofectamine 2000 (Invitrogen) as per the manufacturer's instructions. After 72h of transfection, cells were lysed in Cell Lytic M lysis reagent (Sigma Cat #C2978) containing a protease inhibitor cocktail. […]\nReplacement of the Tris-HCl buffer with the PBS buffer for purified proteins for drug-protein binding analyses using isothermal titration calorimetry (ITC): After the purified proteins were eluted from the agarose resin with 3×flag peptide, the same purified protein samples from different batches were combined. […] The PBS-resuspended protein samples were recovered from the reservoir and the protein concentrations were determined using the nano-drop reader (Bio-Rad) and BCA Protein Assay (Thermo/Pierce) for double-making sure the concentration. […]"}
{"smiles": "CCC1(O)C(=O)OCc2c1cc1n(c2=O)Cc2cc3cc4c(cc3nc2-1)OCO4", "note": "(stereo not shown) [FL118]", "values": [{"measurement": "Kd", "value": 160, "unit": "nM"}]}
